# Experimental data from US11690825B2 (BOARD OF REGENTS, THE UNIVERSITY OF TEXAS SYSTEM, priority 2016, dated 2023).
# Experiments:
# ACE = ACE transcription (mRNA) in endothelial cells; format: cell-based, human; conditions: EC
# Water solubility = format: physicochemical
# Description: As used herein, the term “water soluble” means that the compound dissolves in water at least to the extent of 0.010 mole/liter or is classified as soluble according to literature precedence.
# Cyp4a14−/− mice = assay: High-fat diet in Cyp4a14−/− mice overexpressing 20-HETE; format: in vivo, mouse
# JCR rats = assay: Coronary collateral growth in rat model of metabolic syndrome; format: in vivo; conditions: JCR rats compared with SD rats
# [1] = test system: arteries (responsiveness to the constrictor activity of phenylephrine); assay: Vasoactivity bioassay: ability of 20-HETE to enhance responsiveness of arteries to phenylephrine (PE) constriction; conditions: for Fold Change from 20-HETE: negative values = 20-HETE antagonists, positive values = agonists
# [2] = test system: mouse models of hypertension; assay: DOX mouse model of hypertension: blood pressure, ACE expression, vascular remodeling; format: in vivo
# Description: Systolic blood pressure measurements were taken using the CODA tail-cuff system (Kent Scientific), which utilizes volume pressure recording sensor technology. Mice were acclimated to the machine for one week prior to day 0 and blood pressure was monitored throughout the length of the experiment. […] At the end of the experiment, mice were anesthetized with ketamine (70 mg/kg) and xylazine (70 mg/kg) and laporotomy was performed. Preglomerular arteries were microdissected and collected for western blot analysis, lipid extraction and functional studies. Measurements of Media Thickness, Media to Lumen Ratio, and Medial Cross-Sectional Area (CSA) Segments of renal interlobar arteries were dissected and mounted on a pressurized myograph and equilibrated for 1 h in oxygenated krebs buffer at 37° C. The operator was blinded to treatments except for the blood pressure range of the animal. Lumen diameters from normotensive animals were determined at 100 mmHg and hypertensive animals at 140 mmHg. Measurements of outer diameter (OD) and inner diameter (ID) under passive conditions were used to calculate media thickness [(OD−ID)/2], media to lumen ratio (OD−ID)/ID], and medial cross-sectional area [CSA=(π/4)×(OD2−ID2)] […] Expression of ACE. […] SDS-polyacrylamide gels were transferred to Tran-Blot Turbo Mini PVDF membranes (Bio-Rad, Hercules, Calif.) followed by blocking buffer (Li-Cor, Lincoln, Nebr.) and subsequent incubation with primary and secondary antibodies.
# GPR75 [3] = target: T1, GPR75 (Homo sapiens, UniProt O95800); assay: GPR75 immunoprecipitation in EC (HMVEC); format: cell-based; parameters: endogenous in cells; host or cells: HMVEC (human microvascular endothelial cells); EA.hy926 lysate is also mentioned; conditions: 10 nM for 5 min
# Description: Immunoprecipitation of GPR75 in EC further indicated its association with Gαq/11, GIT1 and HIC-5 (FIG. 11a). […] No change in GPR75-Gαq/11 association was detected in EC (FIG. 11b).
# Immunoprecipitation. […] Western Blot Analysis.
# Target sequence in this assay (O95800 whole entry): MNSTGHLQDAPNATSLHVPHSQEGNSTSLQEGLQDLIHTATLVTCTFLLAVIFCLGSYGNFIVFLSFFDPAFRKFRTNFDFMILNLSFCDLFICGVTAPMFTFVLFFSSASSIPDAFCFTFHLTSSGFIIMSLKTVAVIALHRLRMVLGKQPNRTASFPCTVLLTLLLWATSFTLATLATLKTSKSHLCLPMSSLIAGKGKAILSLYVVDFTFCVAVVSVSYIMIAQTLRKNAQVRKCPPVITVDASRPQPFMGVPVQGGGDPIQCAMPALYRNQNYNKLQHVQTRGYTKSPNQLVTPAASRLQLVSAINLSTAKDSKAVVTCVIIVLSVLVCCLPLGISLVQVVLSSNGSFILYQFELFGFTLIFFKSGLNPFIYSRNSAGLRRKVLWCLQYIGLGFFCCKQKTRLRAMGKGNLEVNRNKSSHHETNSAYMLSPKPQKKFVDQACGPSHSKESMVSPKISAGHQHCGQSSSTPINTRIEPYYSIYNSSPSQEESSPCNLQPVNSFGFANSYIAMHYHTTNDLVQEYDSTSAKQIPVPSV
# Target sequence in this assay (Q9Y2X7 whole entry partner): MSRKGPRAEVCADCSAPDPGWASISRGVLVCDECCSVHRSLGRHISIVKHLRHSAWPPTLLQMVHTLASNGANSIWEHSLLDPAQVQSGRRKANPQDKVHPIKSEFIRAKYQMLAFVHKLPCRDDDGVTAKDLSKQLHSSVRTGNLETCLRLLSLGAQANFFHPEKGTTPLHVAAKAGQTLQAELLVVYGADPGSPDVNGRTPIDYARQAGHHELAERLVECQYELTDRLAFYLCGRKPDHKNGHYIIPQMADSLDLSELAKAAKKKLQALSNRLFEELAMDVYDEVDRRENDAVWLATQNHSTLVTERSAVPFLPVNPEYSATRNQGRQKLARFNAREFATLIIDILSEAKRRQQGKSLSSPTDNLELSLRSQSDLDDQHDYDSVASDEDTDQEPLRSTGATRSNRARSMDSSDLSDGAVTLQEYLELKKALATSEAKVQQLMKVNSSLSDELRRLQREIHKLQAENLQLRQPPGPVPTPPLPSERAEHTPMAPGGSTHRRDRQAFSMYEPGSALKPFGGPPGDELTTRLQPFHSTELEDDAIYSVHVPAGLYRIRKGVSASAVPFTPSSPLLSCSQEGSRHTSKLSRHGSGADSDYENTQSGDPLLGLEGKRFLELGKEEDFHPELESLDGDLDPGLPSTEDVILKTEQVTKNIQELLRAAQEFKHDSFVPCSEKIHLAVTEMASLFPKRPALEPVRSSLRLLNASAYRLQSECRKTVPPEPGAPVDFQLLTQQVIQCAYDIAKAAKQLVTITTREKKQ
# [4] = test system: TAFI, thrombin-activated fibrinolysis inhibitor; conditions: endothelial cells; cited from earlier work
# EGFR = EGFR tyrosine phosphorylation and c-Src association in EC
# [5] = test system: membrane fractions of human endothelial cells (EC); assay: 20-APheDa UV crosslinking / click-chemistry band competition; format: binding; conditions: excess amounts of competitor
# Description: When incubated with membrane fractions of human endothelial cells (EC) followed by 15 min of UV (365 nm) crosslinking and 1 h incubation with the click reagent (DBCO-IRdye 800CW, LiCor), an intense band of approximately 47-49 kDa was detected (FIG. 8c).
# GPR75 [6] = target: T1, GPR75; assay: β-arrestin GPCR recruitment assay, GPR75 expressed in CHO cells; format: cell-based; parameters: expressed in transfected cells; host or cells: CHO cells
# Description: β-arrestin represents a robust and widely used screening technology for GPCR-ligand pairing. GPCR-mediated β-arrestin recruitment is also recognized as a distinct intracellular signaling pathway, and ligand-receptor interactions may show a bias toward β-arrestin over classical GPCR signaling pathways.
# Target sequence in this assay (O95800 whole entry): as the sequence (O95800 whole entry) above
# [7] = test system: NO bioavailability and ACE expression; conditions: cited from earlier work
# [8] = Cyp4a14−/− mice on a high-fat diet
compound,measurement,setting,value
CCL5: a proposed GPR75 ligand,ACE transcription (ACE mRNA),ACE,did not induce
"COCCOCCOCCOCCOCCOCCOC(=O)CCCC/C=C\CCCCCCC/C=C\CCCCO [20-6,15-SOLA, 2,5,8,11,14,17-hexaoxanonadecan-19-yl 20-hydroxyeicosa-6(Z),15(Z)-dienoate]",water solubility,Water solubility,water-soluble
same,high-fat diet-induced hyperglycemia,Cyp4a14−/− mice; Cyp4a14−/− mice,normalized
same,high-fat diet-induced obesity,Cyp4a14−/− mice; Cyp4a14−/− mice,attenuates
same,hyperinsulinemia,Cyp4a14−/− mice; [8],alleviates
same,hyperleptinemia,Cyp4a14−/− mice; [8],alleviates
same,impaired coronary collateral growth (CCG),JCR rats,attenuates
"C[C@H](O)CCC/C=C\CCCCCCC/C=C\CCCC(=O)N[C@@H](CC(=O)[O-])C(=O)[O-].[Na+].[Na+] [Analog 9, disodium (19(S)-hydroxyeicosa-5(Z),14(Z)-dienoyl)-L-aspartate]",Fold Change from 20-HETE,[1]; fold change of EC50 to PE,−0.59
"[N-]=[N+]=NC[C@H](O)CCC/C=C\CCCCCCC/C=C\CCCC(=O)[O-].[Na+] [Analog 3, Sodium 20-azido-19(R)-hydroxyeicosa-5(Z),14(Z)-dienoate]",Fold Change from 20-HETE,[1]; fold change of EC50 to PE,−5.69
"Sodium 20-azido-19(R)-hydroxyeicosa-5(Z),14(Z)-dienoate [Analog 3]",Fold increase/decrese from 20-HETE,"[1]; Table 2, fold change of EC50 to PE",−6.78
"CCC(O)CC/C=C\CCCCCCC/C=C\CCCC(=O)[O-].[Na+] (centres unmarked) [Analog 15, Sodium 18-hydroxyeicosa-5(Z),14(Z)-dienoate]",Fold Change from 20-HETE,[1]; fold change of EC50 to PE,−2.17
"CC(O)CCC/C=C\CCCCCCCCCCCCC(=O)NCC(=O)[O-].[Na+] (centres unmarked) [Analog 14, Sodium (19-hydroxyeicosa-14(Z)-enoyl)glycinate]",Fold Change from 20-HETE,[1]; fold change of EC50 to PE,−2.56
"[N-]=[N+]=NC[C@@H](O)CCC/C=C\CCCCCCC/C=C\CCCC(=O)NS(=O)(=O)c1ccc(NC(=O)CCc2ccc(C(=O)c3ccccc3)cc2)cc1 [PCL, 20-azido-N-((4-(3-(4-benzoylphenyl)propanamido)phenyl)sulfonyl)-19(S)-hydroxyeicosa-5(Z),14(Z)-dienamide]","block of 20-HETE-mediated sensitization of PE vasoconstriction, change of EC50 to PE",[1]; FIG. 8b,4 fold
same,Fold Change from 20-HETE,[1]; fold change of EC50 to PE,−3.28
"[N-]=[N+]=N[C@@H](CO)CCC/C=C\CCCCCCC/C=C\CCCC(=O)[O-].[Na+] [Analog 6, Sodium 19(R)-azido-20-hydroxyeicosa-5(Z),14(Z)-dienoate]",Fold Change from 20-HETE,[1]; fold change of EC50 to PE,0.50
"C[C@H](O)CCC/C=C\CCCCCCC/C=C\CCCC(=O)[O-].[Na+] [Analog 1, sodium 19(S)-hydroxyeicosa-5(Z),14(Z)-dienoate]",Fold Change from 20-HETE,[1]; fold change of EC50 to PE,−0.68
"CCC(O)CC/C=C\CCCCCCC/C=C\CCCC(=O)NCC(=O)[O-].[Na+] (centres unmarked) [Analog 16, Sodium (18-hydroxyeicosa-5(Z),14(Z)-dienoyl)glycinate]",Fold Change from 20-HETE,[1]; fold change of EC50 to PE,−1.13
"O=C(O)CNC(=O)CCCC/C=C\CCCCCCC/C=C\CCCCO [20-6,15-HEDGE, 2-(20-hydroxyeicosa-6(Z),15(Z)-dienamido)acetic acid]",ACE expression in preglomerular microvessels (PGMV),[2]; compared with lisinopril and losartan,decreases ACE expression
same,systolic blood pressure,"[2]; in combination with DOX, several time points",decreases systolic blood pressure as effectively as the ACE inhibitors lisinopril and losartan
same,vascular remodeling,"[2]; mouse, in vivo",decreasing vascular remodeling
"[N-]=[N+]=N[C@H](CO)CCC/C=C\CCCCCCC/C=C\CCCC(=O)[O-].[Na+] [Analog 5, Sodium 19(S)-azido-20-hydroxyeicosa-5(Z),14(Z)-dienoate]",Fold Change from 20-HETE,[1]; fold change of EC50 to PE,0.16
"C[C@@H](O)CCC/C=C\CCCCCCC/C=C\CCCC(=O)[O-].[Na+] [Analog 2, 19(R)-Hydroxyeicosa-5(Z),14(Z)-dienoate]",Fold Change from 20-HETE,[1]; fold change of EC50 to PE,−0.85
"[N-]=[N+]=NC[C@@H](O)CCC/C=C\CCCCCCC/C=C\CCCC(=O)[O-].[Na+] [Analog 4, sodium 20-azido-19(S)-hydroxyeicosa-5(Z),14(Z)-dienoate]",Fold Change from 20-HETE,[1]; fold change of EC50 to PE,−5.45
"O=C(O)CCC/C=C\C/C=C\C/C=C\C/C=C\CCCCCO [Analog 20-HETE, 20-hydroxyeicosa-5(Z),8(Z),11(Z),14(Z)-tetraenoic acid]",GPR75-HIC-5 dissociation,GPR75 [3],60%
same,induction of TAFI expression,[4],2-3 fold
same,association of c-Src with EGFR,EGFR; EC,increased
same,association of c-Src with GIT1,EGFR; EC,decreased
same,increase of tyrosine phosphorylation of EGFR,EGFR; EC transduced with control siRNA,1.99±0.16 fold
same,increase in EGFR phosphorylation,EGFR; FIG. 12d,2-3 fold
same,competition with formation of the 47-49 kDa 20-APheDa band,[5],competed with
same,ACE transcription (ACE mRNA),ACE,increase in ACE mRNA
same,GPR75 activation (β-arrestin recruitment),GPR75 [6],activated GPR75
same,concentration range of maximal changes in NO bioavailability and ACE expression,[7],5 to 10 nmol/L
"CC(O)CCC/C=C\CCCCCCCCCCCCC(=O)[O-].[Na+] (centres unmarked) [Analog 12, Sodium 19-hydroxyeicosa-14(Z)-enoate]",Fold Change from 20-HETE,[1]; fold change of EC50 to PE,0.79
"CC(O)CCCCCCCCCCCC/C=C\CCCC(=O)NCC(=O)[O-].[Na+] (centres unmarked) [Analog 13, Sodium (19-hydroxyeicosa-5(Z)-enoyl)glycinate]",Fold Change from 20-HETE,[1]; fold change of EC50 to PE,−2.19
"C[C@@H](O)CCC/C=C\CCCCCCC/C=C\CCCC(=O)N[C@@H](CC(=O)[O-])C(=O)[O-].[Na+].[Na+] [Analog 10, Disodium (19(R)-hydroxyeicosa-5(Z),14(Z)-dienoyl)-L-aspartate]",Fold Change from 20-HETE,[1]; fold change of EC50 to PE,−2.03
"O=C([O-])CCC/C=C\CCCCCCC/C=C\CCCCO.[Na+] [Analog 19, Sodium 19-hydroxynonadeca-5(Z),14(Z)-dienoate]",Fold Change from 20-HETE,[1]; fold change of EC50 to PE,−0.68
"CCCCC/C=C\C[C@H](O)/C=C/C=C\C/C=C\CCCC(=O)O [12(S)-HETE, 12(S)-hydroxyeicosa-5(Z),8(Z),10(E),14(Z)-tetraenoic acid]",competition with formation of the 47-49 kDa 20-APheDa band,[5],not
"CC(O)CCC/C=C\CCCCCCC/C=C\CCCc1nnn[nH]1 (centres unmarked) [Analog 21, 19-(1H-Tetrazol-5-yl)nonadeca-6(Z),15(Z)-dien-2-ol]",Fold Change from 20-HETE,[1]; fold change of EC50 to PE,−0.78
"CC(C)(O)CCC/C=C\CCCCCCC/C=C\CCCC(=O)NCC(=O)[O-].[Na+] [Analog 18, Sodium 2-(19-hydroxy-19-methyleicosa-5(Z),14(Z)-dienamido)acetate]",Fold Change from 20-HETE,[1]; fold change of EC50 to PE,−1.16
"O=C([O-])CNC(=O)CCC/C=C\CCCCCCC/C=C\CCCCO.[Na+] [Analog 20, sodium (19-hydroxynonadeca-5(Z),14(Z)-dienoyl)glycinate]",Fold Change from 20-HETE,[1]; fold change of EC50 to PE,−0.74
"C[C@@H](O)CCC/C=C\CCCCCCC/C=C\CCCC(=O)NCC(=O)[O-].[Na+] [Analog 8, Sodium (19(R)-hydroxyeicosa-5(Z),14(Z)-dienoyl)glycinate]",Fold Change from 20-HETE,[1]; fold change of EC50 to PE,−4.67
"C[C@H](O)CCC/C=C\CCCCCCC/C=C\CCCC(=O)NCC(=O)[O-].[Na+] [Analog 7, Sodium (19(S)-hydroxyeicosa-5(Z),14(Z)-dienoyl)glycinate]",Fold Change from 20-HETE,[1]; fold change of EC50 to PE,−3.46
"CC(O)CCCCCCCCCCCC/C=C\CCCC(=O)[O-].[Na+] (centres unmarked) [Analog 11, Sodium 19-hydroxyeicosa-5(Z)-enoate]",Fold Change from 20-HETE,[1]; fold change of EC50 to PE,−1.66
